According to ChEMBL document CHEMBL1134339, “New 1-aryl-3-(4-arylpiperazin-1-yl)propane derivatives, with dual action at 5-HT1A serotonin receptors and serotonin transporter, as a new class of antidepressants” (J Med Chem, 2001):

Target: T1, Adrenergic receptor alpha-2 (Rattus norvegicus, UniProt P22086+P19328+P22909)
T1 sequence (P22086 whole entry): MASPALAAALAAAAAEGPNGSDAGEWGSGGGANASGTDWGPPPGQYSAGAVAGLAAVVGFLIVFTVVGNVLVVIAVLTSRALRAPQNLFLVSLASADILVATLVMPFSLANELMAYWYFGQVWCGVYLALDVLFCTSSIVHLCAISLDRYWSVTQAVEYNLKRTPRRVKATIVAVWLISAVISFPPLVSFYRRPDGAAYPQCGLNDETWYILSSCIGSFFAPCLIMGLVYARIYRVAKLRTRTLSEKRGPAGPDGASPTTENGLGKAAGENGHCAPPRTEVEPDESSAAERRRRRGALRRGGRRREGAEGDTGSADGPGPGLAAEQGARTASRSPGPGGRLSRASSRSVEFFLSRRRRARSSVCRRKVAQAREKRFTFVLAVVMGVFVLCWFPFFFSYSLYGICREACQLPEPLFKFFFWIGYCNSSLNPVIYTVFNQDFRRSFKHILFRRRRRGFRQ
T1 sequence (P19328 whole entry): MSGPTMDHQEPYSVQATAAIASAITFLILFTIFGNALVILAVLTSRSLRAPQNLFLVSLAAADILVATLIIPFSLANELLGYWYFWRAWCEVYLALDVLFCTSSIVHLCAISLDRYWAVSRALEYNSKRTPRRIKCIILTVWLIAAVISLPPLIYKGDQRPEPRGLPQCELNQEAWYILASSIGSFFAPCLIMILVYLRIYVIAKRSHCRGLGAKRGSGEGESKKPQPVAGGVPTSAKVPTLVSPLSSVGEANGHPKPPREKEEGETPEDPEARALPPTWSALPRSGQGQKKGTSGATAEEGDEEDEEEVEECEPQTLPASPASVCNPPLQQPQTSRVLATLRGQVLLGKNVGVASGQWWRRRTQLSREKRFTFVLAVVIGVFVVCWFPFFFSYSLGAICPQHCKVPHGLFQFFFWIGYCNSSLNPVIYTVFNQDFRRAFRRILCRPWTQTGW
T1 sequence (P22909 whole entry): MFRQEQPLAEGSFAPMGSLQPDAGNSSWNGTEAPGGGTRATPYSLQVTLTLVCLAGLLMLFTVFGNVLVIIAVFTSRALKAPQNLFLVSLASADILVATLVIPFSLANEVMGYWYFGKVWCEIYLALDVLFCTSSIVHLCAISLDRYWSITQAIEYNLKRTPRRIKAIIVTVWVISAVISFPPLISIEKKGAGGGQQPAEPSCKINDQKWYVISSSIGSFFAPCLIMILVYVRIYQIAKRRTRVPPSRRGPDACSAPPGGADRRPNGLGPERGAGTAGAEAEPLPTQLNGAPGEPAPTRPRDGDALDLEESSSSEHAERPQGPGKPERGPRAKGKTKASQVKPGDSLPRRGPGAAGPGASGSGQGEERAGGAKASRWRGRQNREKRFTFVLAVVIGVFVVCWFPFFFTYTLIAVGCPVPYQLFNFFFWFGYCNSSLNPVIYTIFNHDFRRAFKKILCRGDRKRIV
Test: Affinity towards alpha-2 adrenergic receptor (For clonidine Ki(nM)= […]+/-[…])
Type: protein assay

Ki: 280 nM
SMILES: COc1ccccc1N1CCN(CCC(=O)c2csc3ccccc23)CC1
